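Five compound concentrations were applied to cells in 96-well plates for 48 hours; endpoints were derived by simple linear interpolation of the resulting dose-response curve. At the GI50, growth is halved.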 Calls of active or inactive are those of the source. No stated cut-off is given here; in the data, active = GI50 up to about 1.1 µM and inactive = higher.
Tests used:
Experiment in all cases: NCI tumour cell line growth inhibition, 48 h
ACHN = system: ACHN
OVCAR-4 = system: OVCAR-4
RXF 393 = system: RXF 393
SF-268 = system: SF-268
SK-MEL-5 = system: SK-MEL-5
NCI-H460 = system: NCI-H460
HOP-18 = system: HOP-18
UO-31 = system: UO-31
KM-20L2 = system: KM-20L2
SNB-75 = system: SNB-75
TK-10 = system: TK-10
OVCAR-5 = system: OVCAR-5
NCI-H226 = system: NCI-H226
DLD-1 = system: DLD-1
HCC 2998 = system: HCC 2998
M19-MEL = system: M19-MEL
Malme-3M = system: Malme-3M
MDA-MB-435 = system: MDA-MB-435
NCI/ADR-RES = system: NCI/ADR-RES
MCF7 = system: MCF7

SMILES | GI50 (ACHN) | GI50 (OVCAR-4) | GI50 (RXF 393) | GI50 (SF-268) | GI50 (SK-MEL-5) | GI50 (NCI-H460) | GI50 (HOP-18) | GI50 (UO-31) | GI50 (KM-20L2) | GI50 (SNB-75) | GI50 (TK-10) | GI50 (OVCAR-5) | GI50 (NCI-H226) | GI50 (DLD-1) | GI50 (HCC 2998) | GI50 (M19-MEL) | GI50 (Malme-3M) | GI50 (MDA-MB-435) | GI50 (NCI/ADR-RES) | GI50 (MCF7)
COc1ccc(/C=N/N=C(N)N)c(C(=O)O)c1OC | > 100 µM (inactive) | > 100 µM (inactive) | > 100 µM (inactive) | > 100 µM (inactive) | > 100 µM (inactive) | > 100 µM (inactive) | > 100 µM (inactive) | > 100 µM (inactive) | > 100 µM (inactive) | > 100 µM (inactive) | > 100 µM (inactive) | – | – | – | – | – | – | – | – | –
N/C(=C\c1ccc(/C=C(\NC(=O)c2ccccc2)c2nc3c([nH]2)C(=O)c2ccccc2C3=O)cc1)c1nc2c([nH]1)C(=O)c1ccccc1C2=O | 15.6 µM (inactive) | 11.2 µM (inactive) | 11.8 µM (inactive) | 8.47 µM (inactive) | 16.5 µM (inactive) | 17.5 µM (inactive) | 14.3 µM (inactive) | 4.84 µM (inactive) | 16.5 µM (inactive) | 3.65 µM (inactive) | 23.1 µM (inactive) | 18.9 µM (inactive) | 11.5 µM (inactive) | 12.7 µM (inactive) | – | – | – | – | – | –
COc1ccc(OC)c(NC(=O)C(=O)C(C(=O)c2ccccc2F)C2OC(=O)c3ccccc32)c1 (stereo not given) | 82.6 µM (inactive) | 66.8 µM (inactive) | 25.5 µM (inactive) | 22.8 µM (inactive) | 79.1 µM (inactive) | 44.8 µM (inactive) | – | 50.6 µM (inactive) | 51.9 µM (inactive) | 39.7 µM (inactive) | > 100 µM (inactive) | 79.4 µM (inactive) | 16.6 µM (inactive) | 42 µM (inactive) | 44.8 µM (inactive) | 29.1 µM (inactive) | – | – | – | –
Nc1nc(SCCNC(=O)CCc2ccc(O)c(I)c2)nc2c1ncn2C1OC(CO)C(O)C1O (stereo not given) | > 100 µM (inactive) | > 100 µM (inactive) | > 100 µM (inactive) | > 100 µM (inactive) | > 100 µM (inactive) | > 100 µM (inactive) | – | – | > 100 µM (inactive) | > 100 µM (inactive) | > 100 µM (inactive) | > 100 µM (inactive) | > 100 µM (inactive) | > 100 µM (inactive) | > 100 µM (inactive) | > 100 µM (inactive) | > 100 µM (inactive) | – | – | –
O=c1c(Cc2c(O)oc3cc(O)ccc3c2=O)c(O)oc2cc(O)ccc12 | – | 56.8 µM (inactive) | > 100 µM (inactive) | > 100 µM (inactive) | 41.8 µM (inactive) | > 100 µM (inactive) | – | 31.9 µM (inactive) | – | 53.5 µM (inactive) | > 100 µM (inactive) | > 100 µM (inactive) | > 100 µM (inactive) | – | > 100 µM (inactive) | – | > 100 µM (inactive) | > 100 µM (inactive) | > 100 µM (inactive) | > 100 µM (inactive)
CC(=O)NC1=C[C@@H]([C@H]2COC(C)(C)O2)OC1=O | – | – | > 100 µM (inactive) | > 100 µM (inactive) | > 100 µM (inactive) | > 100 µM (inactive) | > 100 µM (inactive) | > 100 µM (inactive) | > 100 µM (inactive) | > 100 µM (inactive) | – | > 100 µM (inactive) | > 100 µM (inactive) | > 100 µM (inactive) | 99.3 µM (inactive) | > 100 µM (inactive) | > 100 µM (inactive) | – | > 100 µM (inactive) | > 100 µM (inactive)
CCOC(=O)c1csc(NC(=O)CCN(CC)CC)n1 | 42.9 µM (inactive) | 57.4 µM (inactive) | 49.4 µM (inactive) | – | 45.8 µM (inactive) | > 100 µM (inactive) | – | 35.7 µM (inactive) | – | 28.1 µM (inactive) | 23.8 µM (inactive) | > 100 µM (inactive) | 30.3 µM (inactive) | – | 49.8 µM (inactive) | – | – | 38.3 µM (inactive) | 40.2 µM (inactive) | 26 µM (inactive)
CCOC(=O)/C=C(\C)c1ccc(OC)cc1 | 74.1 µM (inactive) | > 100 µM (inactive) | > 100 µM (inactive) | > 100 µM (inactive) | > 100 µM (inactive) | > 100 µM (inactive) | > 100 µM (inactive) | > 100 µM (inactive) | > 100 µM (inactive) | > 100 µM (inactive) | > 100 µM (inactive) | > 100 µM (inactive) | > 100 µM (inactive) | > 100 µM (inactive) | > 100 µM (inactive) | – | > 100 µM (inactive) | – | – | –
N=C(N)Nc1ncccc1[N+](=O)[O-] | – | > 100 µM (inactive) | > 100 µM (inactive) | 74.6 µM (inactive) | 38.9 µM (inactive) | 51.8 µM (inactive) | > 100 µM (inactive) | > 100 µM (inactive) | 25.4 µM (inactive) | > 100 µM (inactive) | – | > 100 µM (inactive) | > 100 µM (inactive) | > 100 µM (inactive) | 55.2 µM (inactive) | – | 44.6 µM (inactive) | – | > 100 µM (inactive) | 25.7 µM (inactive)
CCOC(=O)/C(C#N)=C1/SC(C(=O)N/N=C/c2ccc(OC)cc2)=C(N)N1c1ccccc1 | 28.9 µM (inactive) | – | – | 97.5 µM (inactive) | 39.4 µM (inactive) | 72.8 µM (inactive) | > 100 µM (inactive) | > 100 µM (inactive) | – | 0.318 µM (active) | > 100 µM (inactive) | > 100 µM (inactive) | > 100 µM (inactive) | > 100 µM (inactive) | > 100 µM (inactive) | > 100 µM (inactive) | – | – | – | –

Reference: ChEMBL document CHEMBL1201862, “PubChem BioAssay data set” (2004)
